Data reported in patent US6046228A, “Anti-viral pharmaceutical compositions containing saturated 1,2-dithiaheterocyclic compounds and uses thereof” (priority 1999, dated 2000).
Where two headings read alike, the source gives them in different places.

Assays:
HIV-1 SK1 = experiment: XTT cytopathicity assay, SK1; assay type: cell-based; conditions: Human immunodeficiency virus 1, CEM-SS
Protocol: (§1) Initial anti-HIV screening was performed with CEM-SS cells and HIV-1RFusing the XTT cytoprotection assay as previously described (Weislow et al., J. National Cancer Inst. 81: 577-586, (1989)). HIV-1 isolates included common laboratory stains (RF, IIIB and MN), as well as a panel of HIV-1 clinical isolates (Cushman et al., J. Med. Chem. 37: 3040-3050, (1994)). The pyridone-resistant HIV-1A17 isolate (Nunberg et al., J. Virol., 65: 4887-4892 (1991)) was obtained from Emilio Emini at Merck Sharpe and Dohme Laboratories. Phytohemagglutinin-stimulated human peripheral blood lymphocytes (PBLs) and fresh monocyte-macrophage (Mono/MF) cultures were prepared and utilized in antiviral assays as previously described (Rice et al., Proc. Nat'l. Academy Science, USA 90: 9721-9724, (1993)); (Cushman et al., J. Med. Chem. 37: 3040-3050, (1994)). EC50 values for these cultures indicate the drug concentration that provided a 50% reduction in viral p24 production. […] The compounds can be synthesized according to the teachings of Singh et al., Sulfur Letters 8: 107-114, (1988). The 4,5-cis-dihydroxy(1,1-dioxy-1,2,-dithiohexane) compound (NSC 624151) has been abbreviated as 624151 for convenience. […]

CEM-SS cells = experiment: XTT assay, cytotoxicity (IC50), CEM-SS cells; assay type: cell-based
Protocol: Initial anti-HIV screening was performed with CEM-SS cells and HIV-1RFusing the XTT cytoprotection assay as previously described (Weislow et al., J. National Cancer Inst. 81: 577-586, (1989)). HIV-1 isolates included common laboratory stains (RF, IIIB and MN), as well as a panel of HIV-1 clinical isolates (Cushman et al., J. Med. Chem. 37: 3040-3050, (1994)). The pyridone-resistant HIV-1A17 isolate (Nunberg et al., J. Virol., 65: 4887-4892 (1991)) was obtained from Emilio Emini at Merck Sharpe and Dohme Laboratories. Phytohemagglutinin-stimulated human peripheral blood lymphocytes (PBLs) and fresh monocyte-macrophage (Mono/MF) cultures were prepared and utilized in antiviral assays as previously described (Rice et al., Proc. Nat'l. Academy Science, USA 90: 9721-9724, (1993)); (Cushman et al., J. Med. Chem. 37: 3040-3050, (1994)). EC50 values for these cultures indicate the drug concentration that provided a 50% reduction in viral p24 production. […] The compounds can be synthesized according to the teachings of Singh et al., Sulfur Letters 8: 107-114, (1988). […] MT-2, MT-4, U1, HeLa-CD4-LTR-β-gal and 174xCEM cells were obtained from the AIDS Research and Reference Program (National Institute of Allergy and Infectious Disease, National Institutes of Health, Bethesda, Md. USA), as were the HIV-2MS and the AZT-resistant HIV-1G910-6 isolates.
Racemate and enantiomers of the cis-1,1-dioxo[1,2]dithiane-4,5-diol were synthesized and evaluated for antiviral activity in the XTT assay as described hereinabove.

HIV-1 protease = biological target: T1, HIV-1 protease (Human immunodeficiency virus type 1 group M subtype B, UniProt P04585); experiment: processing of purified recombinant Pr55^gag by purified HIV-1 protease; assay type: biochemical; conditions: data not shown, in words
T1 construct: the purified HIV-1 protease and integrase enzymes

HIV-1 Thiazol-108 = experiment: XTT cytopathicity assay, drug resistant HIV-1; assay type: cell-based; conditions: MT-2, Thiazol-108
Protocol: (§2) Initial anti-HIV screening was performed with CEM-SS cells and HIV-1RFusing the XTT cytoprotection assay as previously described (Weislow et al., J. National Cancer Inst. 81: 577-586, (1989)). HIV-1 isolates included common laboratory stains (RF, IIIB and MN), as well as a panel of HIV-1 clinical isolates (Cushman et al., J. Med. Chem. 37: 3040-3050, (1994)). The pyridone-resistant HIV-1A17 isolate (Nunberg et al., J. Virol., 65: 4887-4892 (1991)) was obtained from Emilio Emini at Merck Sharpe and Dohme Laboratories. Phytohemagglutinin-stimulated human peripheral blood lymphocytes (PBLs) and fresh monocyte-macrophage (Mono/MF) cultures were prepared and utilized in antiviral assays as previously described (Rice et al., Proc. Nat'l. Academy Science, USA 90: 9721-9724, (1993)); (Cushman et al., J. Med. Chem. 37: 3040-3050, (1994)). EC50 values for these cultures indicate the drug concentration that provided a 50% reduction in viral p24 production. […] The compounds can be synthesized according to the teachings of Singh et al., Sulfur Letters 8: 107-114, (1988). The 4,5-cis-dihydroxy(1,1-dioxy-1,2,-dithiohexane) compound (NSC 624151) has been abbreviated as 624151 for convenience. MT-2, MT-4, U1, HeLa-CD4-LTR-β-gal and 174xCEM cells were obtained from the AIDS Research and Reference Program (National Institute of Allergy and Infectious Disease, National Institutes of Health, Bethesda, Md. USA), as were the HIV-2MS and the AZT-resistant HIV-1G910-6 isolates.
(§3) ^a Anti-HIV studies utilizing lymphocytederived cell lines were
(§4) performed using the XTT cytopathicity assay, while antiviral assays

HIV-1 TIBO-98/100 = experiment: XTT cytopathicity assay, drug resistant HIV-1; assay type: cell-based; conditions: MT-2, TIBO-98/100
Protocol: as §2, §3, §4

HIV-1 UC38-181 = experiment: XTT cytopathicity assay, drug resistant HIV-1; assay type: cell-based; conditions: MT-2, UC38-181
Protocol: as §2, §3, §4

HIV-1 HEPT-236 = experiment: XTT cytopathicity assay, drug resistant HIV-1; assay type: cell-based; conditions: MT-2, HEPT-236
Protocol: as §2, §3, §4

HIV-1 Calo-139 = experiment: XTT cytopathicity assay, drug resistant HIV-1; assay type: cell-based; conditions: MT-2, Calo-139
Protocol: as §2, §3, §4

HIV-1 DPS-181 = experiment: XTT cytopathicity assay, drug resistant HIV-1; assay type: cell-based; conditions: MT-2, DPS-181
Protocol: as §2, §3, §4

HIV-1 WEJO(SI) = experiment: antiviral assay in PBL (p24), clinical isolate WEJO; assay type: cell-based; conditions: Human immunodeficiency virus 1, cell-free p24
Protocol: as §1

HIV-1RF virions = experiment: viral inactivation assay, HeLa-CD4-LTR-βgal cells; assay type: cell-based; conditions: FIG. 2(B), in words
Protocol: HeLa-CD4-LTR-βgal cells (1.5×10^4 /well) were plated in 200 μl volume in flat bottom 96-well microtiter plates for 24 hours, after which the fluid was removed and replaced with drug-treated samples. The HIV-1RF stock was treated with various concentrations NSC 624151 for 2 hours at 37° C., followed by centrifugation (18,000×g for 1 hour at 4° C.) to remove compound from the virus, preparation of serial two-fold dilutions and plating of 200 μl of each dilution in triplicate onto the cell monolayer. The cultures were then incubated for 4 additional days, and monolayers were then fixed for 5 minutes with 2% formaldehyde/2% glutaraldehyde, washed twice with cold PBS and then stained with X-gal substrate for 24 hours at 37° C. The number of blue-stained cells (each indicating a single infectious unit) were then counted in each well and the number of infectious units per ml (mean±SD) of sample were determined values calculated.

HIV-1RF = experiment: effect of increasing multiplicity of infection, CEM-SS cells; assay type: cell-based; conditions: for EC50: Human immunodeficiency virus 1, CEM-SS
Protocol: as §2

## O=S1(=O)C[C@H](O)[C@H](O)CS1 (relative stereo) [NSC 624151, cis-1,1-dioxo[1,2]dithiane-4,5-diol]
HIV-1 SK1
  EC50: 22.7 µM
CEM-SS cells; Homo sapiens, CEM-SS, Table 5, cytotoxicity, read-out: IC50 Duplicates
  IC50: 116 µM
CEM-SS cells; Homo sapiens, CEM-SS, Table 5, cytotoxicity, read-out: IC50 Mean
  IC50: 122 µM
CEM-SS cells; Homo sapiens, CEM-SS, cytotoxicity, CEM-SS cells, read-out: XTT Assay IC50
  IC50: 184 µM
CEM-SS cells; Table 5, cytotoxicity, read-out: IC50 Duplicates
  IC50: 127 µM
HIV-1 protease
  inhibition of purified HIV-1 protease processing of recombinant Pr55^gag: not to inhibit purified HIV-1 protease
HIV-1 Thiazol-108
  EC50: 17 µM
HIV-1 TIBO-98/100
  EC50: 16 µM
HIV-1 UC38-181
  EC50: 17 µM
HIV-1 HEPT-236
  EC50: 16 µM
HIV-1 Calo-139
  EC50: 15 µM
HIV-1 DPS-181
  EC50: 16.5 µM
HIV-1 WEJO(SI)
  EC50: 7.59 µM
HIV-1RF virions
  inactivation of viral infectivity: enter intact virions and inactivate the viral infectivity
HIV-1RF virions; listed as 624151
  inactivation of viral infectivity: concentration-dependant inactivation of viral infectivity
HIV-1RF; MOI 0.01
  EC50: 8.4 µM
HIV-1RF; MOI 0.02
  EC50: 17.1 µM
HIV-1RF; MOI 0.04
  EC50: 16.8 µM
HIV-1RF; MOI 0.08
  EC50: 27.7 µM
HIV-1RF; MOI 0.16
  EC50: 21.3 µM
HIV-1RF; MOI 0.32
  EC50: 21 µM
HIV-1RF; in words
  effect of increasing the MOI on activity: relatively resistant to the effects of increasing the viral MOI
